In patent US7998940B2, “Aptamers to von Willebrand factor and their use as thrombotic disease therapeutics” (Archemix Corp., priority 2004, dated 2011):
Read-outs that look alike come from different tables or passages of the source. Oligonucleotides are written 5' to 3', each unit as a sugar letter and its base; * is a phosphorothioate linkage, no mark a phosphodiester; rarer units and linkages stand in square brackets, end groups in braces. Plain capitals give the bases only. [invdT] = inverted (3'-3') thymidine; d = 2'-deoxy (DNA); r = 2'-OH (RNA)

Legend:
[1] = system: rabbit vWF A1 domain (SEQ ID NO 6); test: dot blot KD determination, rabbit vWF A1 domain; assay type: binding
Protocol: A 12 point protein titration was used in the dot blot assay (300 nM, 100 nM, 30 nM, 10 nM, 3 nM, 1 nM, 300 pM, 100 pM, 30 pM, 10 pM, 3 pM, 0 pM) in 1×DPBS plus 0.1 mg/mL BSA at room temperature for 30 minutes.

[2] = system: full length human vWF (SEQ ID NO 7); test: dot blot KD determination and extent of binding, full length human vWF; settings: for Kd: read-out: Full length human vWF KD;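 for all read-outs here: dot blot binding of aptamers to full length human vWF across a protein titration, incubated 30 minutes at room temperature in 1x DPBS with BSA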
[3] = system: rabbit vWF domain A1 binding to lyophilized platelets; test: Rabbit von Willebrand Factor domain A1 platelet binding assay (FACS); assay type: cell-based
Protocol: Botrocetin induces the binding of the A1 domain of vWF to platelets, as well as the full length protein. It was determined by the inventors that 6-Histidine-tagged rabbit A1 domain vWF purified protein could be induced to bind to human lyophilized platelets with botrocetin. Rabbit A1 binding to platelets is measured with an anti-poly-His antibody followed by incubation with a phycoerythrin conjugated secondary antibody. The degree of binding can be quantified by flow cytometric analysis. The ability of aptamers to block the binding of rabbit A1 to human fixed platelets was correlated with decreased fluorescence signal.
The ability of aptamers of the invention to block rabbit vWF domain A1 binding to lyophilized platelets was also assessed by flow cytometric analysis. Titrations of aptamers (zero, 0.1 nM to 1000 nM) were preincubated briefly with 4 nM of rabbit A1 vWF in FACS buffer (PBS plus 0.5% bovine serum albumin) at room temperature in a volume of 50 uL. Another 50 uL containing 5 uL of lyophilized platelets plus 1 uL of 0.1 U/uL of botrocetin in FACS buffer was added to aptamer/vWF. This reaction was allowed to proceed for 15 minutes at 37 degrees C. after which 200 uL of FACS buffer was added. Platelets were collected by a 6 minute spin at 1470 RCF and the supernatant was discarded. The pellets were resuspended in 100 uL of FACS buffer containing a 1:200 dilution of anti-Penta-HIS-biotin conjugate antibody and were incubated at room temperature for 30 minutes. After the dilution with 200 uL of FACS buffer, the platelets were spun at 1470 RCF for 6 minutes, and the supernatant was discarded. The pellets were resuspended in a 1:100 solution of anti-IgG-PE antibody and were incubated in the dark for 30 minutes at room temperature. The entire 100 uL was diluted into 200 uL of FACS buffer and analyzed immediately by flow cytometric analysis in the FACSCAN. Contaminating debris was eliminated from the analysis by drawing a gate around the population of single and aggregated platelets and collecting data from 10000 events. Median fluorescent intensity (“MedFI”) readings (which are generally equivalent to the MFI readings, described in Example 3a above, for comparative purposes) were quantified for each sample analyzed by flow cytometry. Background MedFI was subtracted from all data points. Percent inhibition was reported by calculating the percent value of binding of […] to platelets in the presence of aptamer at a given concentration relative to binding in the absence of any aptamer (see FIG. 7). IC50 values were determined by fitting the percent inhibition of vWF binding to platelets as a function of aptamer concentration to the equation: % inhibition=% inhibitionmax/(1+IC50/aptamer conc.)

[4] = target: human vWF A1 domain (SEQ ID NO 5) (Homo sapiens, UniProt P04275, T1381A); test: dot blot KD determination, human vWF A1 domain; settings: read-out: Human vWF A1 domain KD
Protocol: For KD determination, aptamers transcripts were purified on 10% denaturing polyacrylamide gels, 5′ end labeled with γ-^32P ATP.
For KD determination, aptamers were purified on denaturing polyacrylamide gels and 5′-end labeled with γ-^32P ATP. A 6 point protein titration of human vWF A1 domain (SEQ ID NO 5) was used in the dot blot assay (333 nM, 100 nM, 33 nM, 10 nM, 3 nM, 0 nM) in 1×DPBS plus 0.1 mg/mL BSA at room temperature for 30 minutes. KD values were calculated by fitting the equation y=(max/(1+K/protein))+yint using KaleidaGraph (KaleidaGraph v. 3.51, Synergy Software).
KD values were calculated by fitting the equation y=(max/(1+K/protein))+yint using KaleidaGraph (KaleidaGraph v. 3.51, Synergy Software).
All minimer sequences were transcribed, gel-purified on 15% denaturing polyacrylamide gels, 5-^32 end-labeled with γ^32P ATP, and then desalted using two Centri-Spin 10 columns (Princeton Separations Cat. #CS-101, Adelphia, N.J.). For KD determination, minimer transcripts were tested for direct binding to full length human vWF (SEQ ID NO 7), human vWF A1 domain (SEQ ID NO 5), and rabbit vWF A1 domain (SEQ ID NO 6) using an 8 point protein titration from 0-300 nM (3 fold dilutions) in 1× Dulbecco's PBS containing 0.1 mg/mL BSA (in a final volume of 50 uL) for 30 minutes at room temperature and then applied to a nitrocellulose and nylon filter sandwich in a dot blot apparatus (Schleicher and Schuell, Keene, N.H.). KD values were calculated by fitting the equation y=(max/(1+K/protein))+yint using KaleidaGraph (KaleidaGraph v. 3.51, Synergy Software).
All minimer DNA sequences were chemically synthesized, 5-^32P end-labeled with γ-^32P ATP, and then desalted using two Centri-Spin 10 columns (Princeton Separations, Cat. #CS-101, Adelphia, N.J.). […] KD values were calculated by fitting the equation y=(max/(1+K/protein))+yint using KaleidaGraph (KaleidaGraph v. 3.51, Synergy Software).

[5] = system: botrocetin induced platelet aggregation; test: Inhibition of botrocetin induced platelet aggregation (BIPA) in human PRP; assay type: cell-based; settings: for ≦200 nM aptamer gives >90% blocking in BIPA at 6 minutes: botrocetin induced platelet aggregation
Protocol: In platelet rich plasma isolated from fresh human blood, botrocetin induces platelet aggregation via vWF. Platelet aggregate formation can be measured optically as an increase in % light transmittance on a Chronolog Model 490-4D Aggregometer because aggregation of platelets clarifies the plasma. Aptamers of the invention were analyzed for their ability to inhibit botrocetin induced platelet aggregation (“BIPA”) in human blood. An aptamer of the invention was considered to be active if it could prevent aggregate formation for six minutes post botrocetin addition.
In order to determine the activity of aptamers on live human platelets, BIPA assays were done using freshly prepared platelet rich plasma. Blood was obtained from healthy human donors who had not taken NSAIDS for at least five days. […] Collected blood was pooled into 15 mL conical tubes and was spun at 200 g for 20 minutes. The turbid, yellow layer of platelet rich plasma (“PRP”) was withdrawn from the tubes, pooled, and set aside at room temperature. The remaining blood was spun at 2500 g for ten minutes. The clarified layer of plasma, known as platelet poor plasma (“PPP”), was withdrawn and set aside at room temperature. PRP was aliquoted into cuvettes containing stir bars at a volume of 470 uL. A sample of 500 uL of PPP was aliquoted into a cuvette and placed in the PPP reference cell of the platelet aggregometer. Samples of PRP were prewarmed at 37 degrees C. in the platelet aggregometer for 3-5 minutes before being used in BIPA assays. First, the concentration of botrocetin needed to induce platelet aggregation for each individual donor was determined by titration. This concentration of botrocetin was used for the remainder of the experiment. Next, aptamer was assayed by adding titrations of aptamer (zero, 1 nM to 1000 nM) to prewarmed PRP for one minute, followed by addition of botrocetin. With platelet aggregation, an increase in amplitude of light transmission is seen (FIG. 8). The concentration at which platelet aggregation is blocked at 90% or greater after 6 minutes is reported in the final column of Table 26.

[6] = system: full length human vWF binding to lyophilized platelets; test: Full length human von Willebrand Factor platelet binding assay (FACS); assay type: cell-based
How it was run: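 Aptamer titrations (0.1–1000 nM) pre-incubated with 5 nM full-length human vWF, then added to lyophilized platelets plus botrocetin for 15 min at 37 °C in PBS/0.5% BSA. Bound vWF detected by anti-vWF then FITC secondary antibody via flow cytometry MFI; % inhibition versus no-aptamer binding fitted for IC50.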

[7] = rRdY minimers, 8 point titration 0-300 nM
[8] = 4 nM rabbit A1 vWF, lyophilized platelets, botrocetin, read-out: Inhibition of rabbit VWF A1 domain binding in FACS assay, Average IC50
[9] = 5 nM full length human vWF, lyophilized platelets, botrocetin, read-out: Inhibition of full length hVWF binding in FACS assay, Average IC50
[10] = 5 nM full length human vWF, lyophilized platelets, botrocetin, units in the cell: lower bound pM, upper bound nM, read-out: Inhibition of full length hVWF binding in FACS assay, IC50 range
[11] = DNA 2 minimers, 9 point protein titration
[12] = 4 nM rabbit A1 vWF, lyophilized platelets, botrocetin, units in the cell: lower bound pM, upper bound nM, read-out: Inhibition of rabbit VWF A1 domain binding in FACS assay, IC50 range

human vWF A1 domain (SEQ ID NO 5), sequence (P04275 with tags, fused parts or gaps T1381A): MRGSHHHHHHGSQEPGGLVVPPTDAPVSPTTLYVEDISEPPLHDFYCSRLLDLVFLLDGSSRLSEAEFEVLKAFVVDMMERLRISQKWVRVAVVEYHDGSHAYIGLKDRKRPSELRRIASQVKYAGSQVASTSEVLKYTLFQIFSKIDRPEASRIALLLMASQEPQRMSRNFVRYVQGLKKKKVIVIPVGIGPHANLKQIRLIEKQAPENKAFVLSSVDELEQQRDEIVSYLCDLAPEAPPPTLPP
rabbit vWF A1 domain (SEQ ID NO 6), sequence (as listed by the source): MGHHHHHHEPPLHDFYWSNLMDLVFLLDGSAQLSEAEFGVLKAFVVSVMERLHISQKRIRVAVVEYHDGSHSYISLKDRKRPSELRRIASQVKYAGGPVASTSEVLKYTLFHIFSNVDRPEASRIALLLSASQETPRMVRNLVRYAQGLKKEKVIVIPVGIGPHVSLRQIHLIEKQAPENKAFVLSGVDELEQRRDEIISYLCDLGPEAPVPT
rabbit vWF domain A1 binding to lyophilized platelets, sequence (as listed by the source): as above

Row | Substance | Kd ([1]; DNA 1 minimers) | Full length human vWF KD ([2]; DNA 1 minimers) | Inhibition of rabbit VWF A1 domain binding in FACS assay, Average IC50 ([3]; 4 nM rabbit A1 vWF, lyophilized platelets, botrocetin) | Inhibition of rabbit VWF A1 domain binding in FACS assay, IC50 range ([3]; 4 nM rabbit A1 vWF, lyophilized platelets, botrocetin, both bounds in nM) | Kd ([4]; DNA 1 minimers, competition dot blot, 10 nM protein) | ≦200 nM aptamer gives >90% blocking in BIPA at 6 minutes [5] | Inhibition of full length hVWF binding in FACS assay, Average IC50 ([6]; 5 nM full length human vWF, lyophilized platelets, botrocetin) | Inhibition of full length hVWF binding in FACS assay, IC50 range ([6]; 5 nM full length human vWF, lyophilized platelets, botrocetin, both bounds in nM) | Kd [1, 7] | Kd [2, 7] | IC50 [3, 8] | Kd [4, 7] | IC50 [6, 9] | IC50 [6, 10] | Kd [1, 11] | Kd [2, 11] | inhibition of binding of rabbit vWF A1 domain to lyophilized human platelets ([3]; in words, FACS, FIG. 7) | inhibition of botrocetin induced platelet aggregation ([5]; in words, human PRP) | inhibition of binding of human vWF to lyophilized human platelets ([6]; in words, FACS, FIG. 7) | IC50 [3, 12]
1 | ATGAGAGTGCTGGTGGATTGCTCAGGTCTGCTGGCTGCTTACTCTCAT (DNA, backbone not given here) [ARC845, minimized DNA aptamer] | 56 nM | No binding | no activity | no activity | 10 nM | no activity | no activity | no activity | – | – | – | – | – | – | – | – | – | – | – | –
2 | GGAGCCACACGACATTGGCGGGCGAGAGCCACGCATGGCTCC (rGrGrArGdCdCrAdCrAdCrGrAdCrAdTdTrGrGdCrGrGrGdCrGrArGrArGdCdCrAdCrGdCrAdTrGrGdCdTdCdC) [SEQ ID NO 192, minimized rRdY aptamer] | – | – | – | – | – | yes | – | – | 8 ± 1 nM | 2 ± 0.2 nM | 2200 pM | 4 ± 1 nM | 2600 pM | – | – | – | – | – | – | –
3 | GGAGCCACGGGGTGGGTAGACGGCGGGTATGTGGCTCC (rGrGrArGdCdCrAdCrGrGrGrGdTrGrGrGdTrArGrAdCrGrGdCrGrGrGdTrAdTrGdTrGrGdCdTdCdC) [SEQ ID NO 180, minimized rRdY aptamer] | – | – | – | – | – | yes | – | – | 14 nM | 1 nM | 9300 pM | 11 nM | 2000 pM | 731 to 3800 pM | – | – | – | – | – | –
4 | GGCGTGCAGTGCC-[PEG]-GGCCGTGCGGTGCCTCCGTCACGCC-3T (DNA GGCGTGCAGTGCCGGCCGTGCGGTGCCTCCGTCACGCCT; chemistry not fully specified) [ARC1029, minimized DNA aptamer] | – | – | – | – | – | yes | – | – | – | – | 754 pM | – | 609 pM | 333 to 1100 pM | 6.5 ± 1.5 nM | 1.4 ± 0.2 nM | inhibits binding | inhibiting botrocetin induced platelet aggregation | inhibits binding | –
5 | GGCGTGCAGTGCCTATTCTAGGCCGTGCGGTGCCTCCGTCACGCC-3T (DNA, [invdT] at 3' end, backbone not given here) [ARC 1027, minimized DNA aptamer] | – | – | – | – | – | yes | – | – | – | – | 2000 pM | – | 1500 pM | 208 to 4200 pM | 4.6 nM | 0.8 nM | – | – | – | 462 to 4200 pM
6 | dGCGTGCAGTGCCT-[PEG]-AGGCCGTGCGGTGCCTCCGTCACGCC-3T (DNA GCGTGCAGTGCCTAGGCCGTGCGGTGCCTCCGTCACGCCT; chemistry not fully specified) [ARC1028, minimized DNA aptamer] | – | – | – | – | – | yes | – | – | – | – | 1500 pM | – | 1200 pM | 473 to 2700 pM | 3.8 nM | 1.1 nM | – | – | – | 526 to 2700 pM
